The values below come from ChEMBL document CHEMBL1155858, “Derivatives of (3S)-N-(biphenyl-2-ylmethyl)pyrrolidin-3-amine as selective noradrenaline reuptake inhibitors: Reducing P-gp mediated efflux by modulation of H-bond acceptor capacity” (Bioorg Med Chem Lett, 2008).

Data set [1] concerns the target Sodium-dependent serotonin transporter (Homo sapiens, UniProt P31645). Briefly: Inhibition of [3H]citalopram uptake at human 5HTT expressed in HEK293 cells by SPA. The class given is cell-based.
Data set [2] can be described thus: Metabolic stability in human liver microsomes assessed as intrinsic clearance. It is filed as ADME, Microsome. (Liver microsomes are a subcellular fraction often used to study metabolism.)
Data set [3] addresses Sodium-dependent dopamine transporter (Homo sapiens, UniProt Q01959). Briefly: Inhibition of [3H]dopamine reuptake at human DAT expressed in HEK293 cells by SPA. It is filed as cell-based.
Data set [4] deals with Sodium-dependent noradrenaline transporter (Homo sapiens, UniProt P23975). Briefly: Inhibition of [3H]nisoxetine reuptake at human NET expressed in HEK293 cells by SPA. It is filed as cell-based.
Sequence of Sodium-dependent noradrenaline transporter (P23975 whole entry): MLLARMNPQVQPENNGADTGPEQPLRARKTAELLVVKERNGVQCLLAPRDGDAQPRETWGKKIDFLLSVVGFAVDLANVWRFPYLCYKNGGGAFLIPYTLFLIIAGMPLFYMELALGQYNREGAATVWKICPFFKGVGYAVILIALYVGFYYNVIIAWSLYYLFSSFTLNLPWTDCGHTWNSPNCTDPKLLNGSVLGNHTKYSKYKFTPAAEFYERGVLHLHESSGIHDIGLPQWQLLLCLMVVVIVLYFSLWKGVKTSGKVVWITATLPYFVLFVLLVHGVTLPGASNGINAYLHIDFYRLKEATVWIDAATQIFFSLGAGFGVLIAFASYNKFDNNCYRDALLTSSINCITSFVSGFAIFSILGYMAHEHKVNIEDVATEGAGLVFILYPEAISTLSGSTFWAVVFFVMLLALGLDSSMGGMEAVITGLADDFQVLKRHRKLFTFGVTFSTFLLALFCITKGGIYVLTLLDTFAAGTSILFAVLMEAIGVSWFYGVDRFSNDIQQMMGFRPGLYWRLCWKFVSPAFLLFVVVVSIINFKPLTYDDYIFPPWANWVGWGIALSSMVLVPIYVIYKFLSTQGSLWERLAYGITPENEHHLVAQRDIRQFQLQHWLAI
The next data set has as its target Cytochrome P450 2D6 (Homo sapiens, UniProt P10635). Briefly: Inhibition of CYP2D6. The class given is ADME.
In the next data set the test system is Liver microsomes. Briefly: Metabolic stability in human liver microsomes. It is filed as ADME, Microsome.
Data set [5] is described as follows: Ratio of permeability from basolateral to apical side over apical to basolateral side of MDCK cells expressing MDR1 gene. The conditions noted are these: dog.
The nature of data set [6]: Apparent permeability from apical to basolateral side of the MDCK cells expressing MDR1 gene. The class given is ADME, cell-based, Canis lupus familiaris. As to conditions: dog.
The nature of data set [7]: Apparent permeability from basolateral to apical side of the MDCK cells expressing MDR1 gene. The class given is ADME, cell-based, Canis lupus familiaris. The conditions noted are these: dog.

Each structure is given as a SMILES string. Bounds are passed on as bounds.

Sequence of Sodium-dependent dopamine transporter (Q01959 whole entry): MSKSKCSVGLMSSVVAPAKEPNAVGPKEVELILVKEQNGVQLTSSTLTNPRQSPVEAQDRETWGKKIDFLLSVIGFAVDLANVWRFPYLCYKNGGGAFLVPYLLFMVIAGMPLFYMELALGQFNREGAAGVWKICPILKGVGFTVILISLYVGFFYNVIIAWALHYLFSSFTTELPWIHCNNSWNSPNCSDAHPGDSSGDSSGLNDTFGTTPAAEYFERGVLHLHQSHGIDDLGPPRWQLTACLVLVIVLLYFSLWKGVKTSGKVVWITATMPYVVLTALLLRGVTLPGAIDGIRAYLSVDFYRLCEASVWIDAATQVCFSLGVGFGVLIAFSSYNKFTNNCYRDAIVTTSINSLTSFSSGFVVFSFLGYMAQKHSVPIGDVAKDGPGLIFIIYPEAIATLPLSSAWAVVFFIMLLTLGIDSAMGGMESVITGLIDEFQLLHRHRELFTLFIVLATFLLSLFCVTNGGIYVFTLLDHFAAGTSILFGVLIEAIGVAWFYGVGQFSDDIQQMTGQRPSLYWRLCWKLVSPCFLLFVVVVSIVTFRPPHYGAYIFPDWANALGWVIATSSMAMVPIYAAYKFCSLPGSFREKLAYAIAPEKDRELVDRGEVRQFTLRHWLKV
Sequence of Sodium-dependent serotonin transporter (P31645 whole entry): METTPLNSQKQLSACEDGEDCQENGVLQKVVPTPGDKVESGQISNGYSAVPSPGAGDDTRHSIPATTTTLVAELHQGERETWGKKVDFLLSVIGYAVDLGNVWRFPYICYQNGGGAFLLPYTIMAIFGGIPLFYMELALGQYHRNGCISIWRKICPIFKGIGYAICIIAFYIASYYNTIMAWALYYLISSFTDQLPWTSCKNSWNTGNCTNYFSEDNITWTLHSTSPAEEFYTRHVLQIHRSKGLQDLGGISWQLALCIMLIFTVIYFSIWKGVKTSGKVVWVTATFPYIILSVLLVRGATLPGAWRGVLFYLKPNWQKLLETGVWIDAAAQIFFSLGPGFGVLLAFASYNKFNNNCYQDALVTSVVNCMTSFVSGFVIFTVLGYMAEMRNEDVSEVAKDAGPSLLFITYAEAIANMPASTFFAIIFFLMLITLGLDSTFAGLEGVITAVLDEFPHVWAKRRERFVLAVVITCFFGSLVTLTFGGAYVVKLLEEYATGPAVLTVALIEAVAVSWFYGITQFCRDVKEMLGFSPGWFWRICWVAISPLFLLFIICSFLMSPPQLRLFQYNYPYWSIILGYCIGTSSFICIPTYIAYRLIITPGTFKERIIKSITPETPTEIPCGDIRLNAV
Sequence of Cytochrome P450 2D6 (P10635 whole entry): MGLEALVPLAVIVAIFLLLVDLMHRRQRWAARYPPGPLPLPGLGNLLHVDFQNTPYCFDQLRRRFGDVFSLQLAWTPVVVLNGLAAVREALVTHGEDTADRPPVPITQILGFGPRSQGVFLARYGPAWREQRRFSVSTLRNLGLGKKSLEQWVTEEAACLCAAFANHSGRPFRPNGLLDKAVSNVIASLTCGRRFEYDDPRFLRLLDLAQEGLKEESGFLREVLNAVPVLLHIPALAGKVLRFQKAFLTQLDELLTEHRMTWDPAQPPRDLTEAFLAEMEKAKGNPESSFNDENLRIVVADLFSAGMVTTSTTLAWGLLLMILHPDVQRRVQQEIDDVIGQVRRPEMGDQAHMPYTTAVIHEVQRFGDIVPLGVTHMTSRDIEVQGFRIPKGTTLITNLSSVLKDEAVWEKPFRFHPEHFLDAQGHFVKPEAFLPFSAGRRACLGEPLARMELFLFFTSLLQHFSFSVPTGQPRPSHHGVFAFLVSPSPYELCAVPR

Consider `CC(C)C(=O)N(Cc1ccccc1C(C)C)[C@H]1CCNC1`, for which the Ki in [1] was 544 nM; in data set [3], 3410 nM; in data set [4], 70 nM. For the same compound, the microsomal CLint in data set [2] was under 7 µL/min/mg.
Take `CC(C)C(=O)N(Cc1ccccc1C(F)(F)F)[C@H]1CCNC1`: the Ki came to 133 nM in [1] and 63 nM in data set [4]. For the same compound, the microsomal CLint in data set [2] was under 7 µL/min/mg.
As for `CCOC(=O)N(Cc1ccccc1SC)[C@H]1CCNC1`, the Ki in data set [1] is 353 nM; in data set [4], 89 nM.
Take `CSc1ccccc1CN(C(=O)C(C)C)[C@H]1CCNC1`: the figures for the Ki in data set [1], in data set [3] and in data set [4] were 50 nM, 1380 nM and 65 nM, respectively.
Consider `CSc1ccccc1CN([C@H]1CCNC1)S(C)(=O)=O`, for which the Ki in [1] stood at 1250 nM; in data set [3], 2950 nM; in data set [4], 86 nM. The microsomal CLint in [2] is under 7 µL/min/mg.
Consider `O=CN(Cc1ccccc1-c1ccccc1)[C@H]1CCNC1`, for which the values for the Ki in [1], in data set [3] and in data set [4] were 869 nM, 2130 nM and 118 nM, respectively.
Take `CCCS(=O)(=O)N(Cc1ccccc1-c1ccccc1)[C@H]1CCNC1`: at Cytochrome P450 2D6, the midpoint of inhibition, the IC50, lay at 185 nM. Further, the Ki worked out at 5680 nM in [1], 2070 nM in data set [3] and 7 nM in data set [4]. Also, the microsomal CLint in data set [2] is 12 µL/min/mg.
Take `CCOC(=O)N(Cc1ccccc1C(C)C)[C@H]1CCNC1`: the Ki in data set [1] worked out at 764 nM; in data set [3] it was 3340 nM; in data set [4], 49 nM.
For `CC(C)C(=O)N(Cc1ccccc1C1CC1)[C@H]1CCNC1` the same measures were 124 nM, 2920 nM and 74 nM.
`CS(=O)(=O)N(Cc1ccccc1-c1ccccc1)[C@@H]1CCNC1` displayed an IC50 on Cytochrome P450 2D6 of 5360 nM. In addition, the Ki in data set [1] stood at 5350 nM; in data set [3], 2390 nM; in [4], 29 nM. Also, the microsomal CLint in [2] is under 7 µL/min/mg.
Take `c1ccc(-c2ccccc2CN[C@H]2CCNC2)cc1`: the Ki came to 1070 nM in data set [1], 2470 nM in [3] and 271 nM in data set [4].
Consider `CC(C)C(=O)N(Cc1ccccc1Oc1ccccc1)[C@H]1CCNC1`, for which the Ki in [1] amounted to 229 nM; in data set [3], 3500 nM; in data set [4] it was 34 nM. In addition, in [2], the microsomal CLint was determined as 10 µL/min/mg.
In turn, `Clc1cccc(CN(C2CCOCC2)[C@H]2CCNC2)c1Cl` returned a t1/2 in the data set with Liver microsomes of 1.67 h.
For `CC(C)S(=O)(=O)N(Cc1ccccc1-c1ccccc1)[C@H]1CCNC1`, the IC50 on Cytochrome P450 2D6 came out at 350 nM. Besides, the figures for the Ki in data set [1], in data set [3] and in data set [4] were 4690 nM, 2700 nM and 10 nM, respectively. For the same compound, the microsomal CLint in [2] was 20 µL/min/mg.
On to `CC(C)OC(=O)N(Cc1ccccc1-c1ccccc1)[C@H]1CCNC1`, for which the results for the Ki in [1], in data set [3] and in data set [4] were 787 nM, 2010 nM and 14 nM, respectively.
In turn, `CCOC(=O)N(Cc1ccccc1Oc1ccccc1)[C@H]1CCNC1` yielded an IC50 against Cytochrome P450 2D6 of 420 nM. In addition, the Ki in [1] amounted to 444 nM; in data set [3] it was 1900 nM; in data set [4] it was 23 nM. The microsomal CLint in data set [2] is 21 µL/min/mg.
As to `CCS(=O)(=O)N(Cc1ccccc1-c1ccccc1)[C@H]1CCN(C)C1`, the figures for the Ki in data set [1] and in [4] were over 10000 nM and 466 nM, respectively.
Take `CCCC(=O)N(Cc1ccccc1-c1ccccc1)[C@H]1CCNC1`: the Ki in data set [1] was 730 nM; in data set [3] it was 2610 nM; in data set [4], 25 nM. In data set [2], the microsomal CLint is under 7 µL/min/mg.
Consider `c1ccc(-c2ccccc2CN(C2CCOCC2)[C@H]2CCNC2)cc1`, for which, in the data set with Liver microsomes, the t1/2 is over 2 h.
As for `CC(=O)N(Cc1ccccc1-c1ccccc1)[C@H]1CCNC1`, the Ki in data set [1] was determined as 5810 nM; in [4], 124 nM. Further, the microsomal CLint in data set [2] was under 7 µL/min/mg.
For `CCOC(=O)N(Cc1ccccc1C(F)(F)F)[C@H]1CCNC1`, the figures for the Ki in [1], in data set [3] and in [4] were 427 nM, 3210 nM and 46 nM, respectively.
For `CS(=O)(=O)N(Cc1ccccc1C(F)(F)F)[C@H]1CCNC1`, the Ki in data set [1] worked out at 2890 nM; in [3], 2890 nM; in [4] it was 86 nM.
On Cytochrome P450 2D6, `CCOC(=O)N(Cc1ccccc1-c1ccccc1)[C@@H]1CCNC1` had an IC50 of 350 nM. Further, the Ki was 410 nM in data set [1], 2910 nM in data set [3] and 16 nM in data set [4]. For the same compound, the microsomal CLint in [2] is under 7 µL/min/mg.
On to `CC(C)CC(=O)N(Cc1ccccc1-c1ccccc1)[C@H]1CCNC1`, for which the Ki in data set [1] amounted to 415 nM; in data set [4], 30 nM. In addition, the microsomal CLint in data set [2] was determined as 9 µL/min/mg.
For `CCC(=O)N(Cc1ccccc1-c1ccccc1)[C@H]1CCNC1` the same measures were 2680 nM, 30 nM and under 7 µL/min/mg.
Consider `O=C(N1CCCC1)N(Cc1ccccc1-c1ccccc1)[C@H]1CCNC1`, for which the efflux ratio in data set [5] was 26. For the same compound, in [6], the Papp A→B was 2 ×10⁻⁶ cm/s. In addition, in data set [7], the Papp B→A amounted to 53 ×10⁻⁶ cm/s. Also, the Ki in data set [3] amounted to 4190 nM; in data set [4], 27 nM.
As for `CN1CC[C@H](N(Cc2ccccc2-c2ccccc2)S(C)(=O)=O)C1`, the figures for the Ki in [1] and in data set [4] were over 10000 nM and 748 nM, respectively.
Consider `CN(C)C(=O)N(Cc1ccccc1-c1ccccc1)[C@H]1CCNC1`, for which the Ki worked out at 5010 nM in data set [1], 2970 nM in data set [3] and 53 nM in data set [4].
On to `CS(=O)(=O)N(Cc1ccccc1Oc1ccccc1)[C@H]1CCNC1`, for which the Ki was determined as 2700 nM in [1], 2550 nM in [3] and 96 nM in [4].
With `CCS(=O)(=O)N(Cc1ccccc1-c1ccccc1)[C@H]1CCNC1`, on Cytochrome P450 2D6, the IC50 is 1890 nM. Further, the Ki in data set [1] stood at 5620 nM; in [3], 2760 nM; in data set [4], 5 nM. Besides, the microsomal CLint in data set [2] was under 7 µL/min/mg.
Take `COC(=O)N(Cc1ccccc1-c1ccccc1)[C@H]1CCNC1`: the IC50 against Cytochrome P450 2D6 came out at 10600 nM. Besides, the Ki in data set [1] worked out at 4440 nM; in data set [3], 3190 nM; in data set [4], 18 nM. In addition, the microsomal CLint in data set [2] was under 7 µL/min/mg.
Consider `CN(C)S(=O)(=O)N(Cc1ccccc1-c1ccccc1)[C@H]1CCNC1`, for which the IC50 against Cytochrome P450 2D6 came to 840 nM. In addition, the efflux ratio in data set [5] is 4. Moreover, the Ki is 3330 nM in [1], 2690 nM in data set [3] and 8 nM in data set [4]. For the same compound, in data set [2], the microsomal CLint came out at 16 µL/min/mg. Besides, the Papp A→B in [6] turned out to be 17 ×10⁻⁶ cm/s. Moreover, the Papp B→A in data set [7] was 68 ×10⁻⁶ cm/s.
Take `O=S(=O)(N(Cc1ccccc1-c1ccccc1)[C@H]1CCNC1)C(F)(F)F`: the figures for the Ki in [1], in [3] and in data set [4] were 5280 nM, 2080 nM and 30 nM, respectively.

Usually Ki stands for a measure of affinity in units of concentration, obtained from inhibition or displacement. Low values mean tighter binding, high ones weaker binding. For orientation: microsomal CLint means the capacity of the preparation to metabolise the compound, expressed as a volume cleared per time. A word on the IC50: it is the concentration that gives 50% inhibition. The low end stands for higher potency, the high end for lower potency. One may read the efflux ratio as the permeability from basolateral to apical divided by that in the opposite direction, in the common usage. As usually defined, the Papp A→B is the apparent permeability from the apical to the basolateral side of a cell layer. By Papp B→A is commonly meant how fast a substance crosses the layer from the basolateral side.
